{"source": "patent US7211561B2", "about": "“Method for inducing selective cell death of malignant cells by activation of calcium-activated potassium channels (KCa)” (Cedars-Sinai Medical Center, priority 2001, dated 2007)", "key": {"[1]": {"test_system": "PTK activity in RG2 cell lysate", "assay": "Protein tyrosine kinase (PTK) assay", "assay_type": "biochemical, rat", "settings": "1–50 μM (FIG. 10)", "method": "A PTK assay kit (The Oncogene Research Products, Boston, Mass.) was used to determine the presence and relative amounts of protein kinase activity in tissue cytosols and cell extracts. Briefly, 1×10^4 RG2 cells seeded in a 50-mL culture flask, and allowed to achieve confluency to form a monolayer at 37° C. in a CO2 incubator.\nBriefly, RG2 cells were harvested after trypsinization, and cells were pelleted by centrifugation. Cells were resuspended with extraction buffer (20 mM Tris, pH 7.4, 50 mM NaCl, 1 mM EDTA, 1 mM EGTA, 0.2 mM PMSF, 1 μg/mL pepstatin, 0.5 μg/mL leupetin, 0.2 mM Na3VO4, 5 mM mercaptoethanol, 0.1% Triton X-100), and cells were lysed using a cell homogenizer. After centrifugation, supernatant was separated from the pellet for PTK assay. The supernatant was treated with superoxide dismutase. Pervanadate (100 mM) was used in the PTK assay to inhibit […] activity, and protein concentration was determined by Lowry's method using a Bio-Rad protein assay kit. […]\nAssay for PTK activity in RG2 cell-lysates was then performed according to the protocol supplied by the PTK assay kit's manufacturer. After adding the stop solution, absorbance measured in each well at 450 nm using a Spectramax Plus (Molecular Devices, Sunnyvale, Calif.)."}, "U87 human glioma cells": {"test_system": "U87 human glioma cells", "assay": "In vitro apoptosis assay (Annexin V-FITC/propidium iodide, FACS)", "assay_type": "cell-based", "settings": "5 μM, positive control (FIG. 5C)", "method": "Human glioma cells (U-87) and HBMVECells were seeded into a 25-mL tissue-culture flask. After 24 h (about 60–70% confluencey), cells were treated with either […] (50 or 100 micrograms/mL) or staurosporine (positive control; 5 μM), a known inducer of apoptosis (Tamaoki, T., et al., Staurosporine, a potent inhibitor of phospholipid/Ca^++ dependent protein kinase, Biochem. Biophys. Res. Commun. 135: 397–402 [1986]; Matsumoto, H., and Sasaki, Y., Staurosporine, a protein kinase C inhibitor interferes with proliferation of arterial smooth muscle cells, Biochem. Biophys. Res. Commun. 158:105–109 [1989]). U-87 cells were returned to the CO2 incubator and incubated overnight. The following day, cells were washed twice with fresh growth medium and cells prepared for FACS analysis as described hereinbelow.\nThe changes in plasma membrane are one of the earliest events in cell death. In apoptotic cells the membrane phospholipid phosphatidylserine (PS) is translocated from the inner to the outer leaflet of the cell membrane in the early phases of apoptosis. Annexin V is a Ca^2+-dependent, phospholipid-binding protein that binds to PS with high affinity. Consequently, Annexin V (PharMingen) conjugated to a label, such as fluorescein isothiocyanate (FITC) or biotin, serves as a sensitive probe for flow cytometry analysis of cells that are undergoing apoptosis. […] (PharMingen; Vermes, I. et al., A novel assay for apoptosis. Flow cytometric detection of phosphatidylserine expression on early apoptotic cells using fluorescein labelled Annexin V, J. Immunol. Meth. 184:39–51 [1995]). Concurrently, propidium iodide is typically used as a standard flow cytometric viability probe, because the intact cell membranes of viable cells exclude propidium iodide, whereas the cell membranes of dead and damaged cells are permeable to propidium iodide. Cells that stain positive for Annexin V and negative for propidium iodide are undergoing apoptosis; cells that stain positive for both Annexin V and propidium iodide are either at the end stage of apoptosis, are undergoing necrosis, or are already dead; and cells that stain negative for both Annexin V-biotin and propidium iodide are alive and not undergoing measurable apoptosis. Briefly, the cells were washed twice with cold PBS and then resuspended in 1× binding buffer (10 mM HEPES/NaOH, pH 7.4, 140 mM NaCl, 2.5 mM CaCl2; 4° C.) at a concentration of about 1×10^6 cells/mL. A 100-μL aliquot of cell suspension was transferred to 5-mL culture tubes, and 2.5 μL of Annexin V-FITC and 2.5-μL of propidium iodide (PharMingen) were added to each tube. The cell suspensions were gently mixed and incubated for 15 min at room temperature in the dark, after which 400 μL of binding buffer was added to each tube of cells. […]"}, "[2]": {"test_system": "implanted RG2 glioma tumor in Wistar rats", "assay": "In vivo apoptosis, intracarotid infusion, implanted tumor tissue (FACS)", "design": "species or system rat", "settings": "RG2 tumor; 20 μg/kg body mass bolus, positive control (FIG. 8I)", "from_the_text": "The changes in plasma membrane are one of the earliest events in cell death. In apoptotic cells the membrane phospholipid phosphatidylserine (PS) is translocated from the inner to the outer leaflet of the cell membrane in the early phases of apoptosis. Annexin V is a Ca^2+-dependent, phospholipid-binding protein that binds to PS with high affinity. Consequently, Annexin V (PharMingen) conjugated to a label, such as fluorescein isothiocyanate (FITC) or biotin, serves as a sensitive probe for flow cytometry analysis of cells that are undergoing apoptosis. […] (PharMingen; Vermes, I. et al., A novel assay for apoptosis. Flow cytometric detection of phosphatidylserine expression on early apoptotic cells using fluorescein labelled Annexin V, J. Immunol. Meth. 184:39–51 [1995]). Concurrently, propidium iodide is typically used as a standard flow cytometric viability probe, because the intact cell membranes of viable cells exclude propidium iodide, whereas the cell membranes of dead and damaged cells are permeable to propidium iodide. Cells that stain positive for Annexin V and negative for propidium iodide are undergoing apoptosis; cells that stain positive for both Annexin V and propidium iodide are either at the end stage of apoptosis, are undergoing necrosis, or are already dead; and cells that stain negative for both Annexin V-biotin and propidium iodide are alive and not undergoing measurable apoptosis. Briefly, the cells were washed twice with cold PBS and then resuspended in 1× binding buffer (10 mM HEPES/NaOH, pH 7.4, 140 mM NaCl, 2.5 mM CaCl2; 4° C.) at a concentration of about 1×10^6 cells/mL. A 100-μL aliquot of cell suspension was transferred to 5-mL culture tubes, and 2.5 μL of Annexin V-FITC and 2.5-μL of propidium iodide (PharMingen) were added to each tube. The cell suspensions were gently mixed and incubated for 15 min at room temperature in the dark, after which 400 μL of binding buffer was added to each tube of cells. The cells were then washed once with 1×binding buffer. Analysis by flow cytometry was then conducted immediately, and no later than within one hour. The resulting analytic FACS graphs were typically divided into four quadrants wherein the upper right (UR) quadrant represented the number of necrotic cells; the lower left (LL) quadrant represented the number of viable cells; the lower right (LR) quadrant represented the number of apoptotic cells; and the upper left (UL) represented cells of an intermediate category, which generally represents cell debris and DNA fragments. The percentage of gated events in each quadrant was used to determine the total percentage of apoptotic and necrotic cells in each cell suspension.\nA rat tumor model, which consisted of intracranially implanted RG2 cells (rat glioma cell line) in Wistar rats, was employed to investigate whether any of several potassium channel activators induce selective apoptosis of tumor cells in vivo.\nThe techniques for RG2 cell propagation and maintenance in tissue culture have been described (Sugita, M. and Black, K. L., Cyclic GMP-specific phosphodiesterase inhibition and intracarotid bradykinin infusion enhances permeability into brain tumors, Cancer Res. 58(5):914–20 [1998]; Inamura et al. [1994]; Nakano, S. et al., Increased brain tumor microvessel permeability after intracarotid bradykinin infusion is mediated by nitric oxide, Cancer Res. 56(17):4027–31 [1996]). Briefly, RG2 cells derived from a rat glioma are kept frozen until use, then are thawed and maintained in a monolayer culture in F12 medium with 10% calf serum.\nThe Wistar rats (approximately 140–160 g body weight) were anesthetized with intra-peritoneal ketamine (50 mg/kg), and glial cells (1×10^5) were implanted into the right hemisphere, but not the contralateral hemisphere, by intracerebral injection suspended in 5 μL F12 medium (1–2% methylcellulose) by a Hamilton syringe. The implantation coordinates were 3-mm lateral to the bregma and 4.5 mm deep to the dural surface. […]"}, "[3]": {"test_system": "contralateral normal brain tissue of Wistar rats with implanted RG2 tumor", "assay": "In vivo apoptosis, intracarotid infusion, contralateral tissue (FACS)", "settings": "20 μg/kg body mass bolus, positive control (FIG. 8J)", "from_the_text": "The changes in plasma membrane are one of the earliest events in cell death. In apoptotic cells the membrane phospholipid phosphatidylserine (PS) is translocated from the inner to the outer leaflet of the cell membrane in the early phases of apoptosis. Annexin V is a Ca^2+-dependent, phospholipid-binding protein that binds to PS with high affinity. Consequently, Annexin V (PharMingen) conjugated to a label, such as fluorescein isothiocyanate (FITC) or biotin, serves as a sensitive probe for flow cytometry analysis of cells that are undergoing apoptosis. […] (PharMingen; Vermes, I. et al., A novel assay for apoptosis. Flow cytometric detection of phosphatidylserine expression on early apoptotic cells using fluorescein labelled Annexin V, J. Immunol. Meth. 184:39–51 [1995]). Concurrently, propidium iodide is typically used as a standard flow cytometric viability probe, because the intact cell membranes of viable cells exclude propidium iodide, whereas the cell membranes of dead and damaged cells are permeable to propidium iodide. […]"}}, "data": [{"smiles": "CC(C)[C@@H]1NC(=O)[C@H](C)OC(=O)[C@@H](C(C)C)NC(=O)[C@@H](C(C)C)OC(=O)[C@H](C(C)C)NC(=O)[C@H](C)OC(=O)[C@@H](C(C)C)NC(=O)[C@@H](C(C)C)OC(=O)[C@H](C(C)C)NC(=O)[C@H](C)OC(=O)[C@@H](C(C)C)NC(=O)[C@@H](C(C)C)OC1=O", "note": "[Valinomycin]", "values": [{"measurement": "PTK activity", "setting": "[1]", "value": "inhibited PTK activity in RG2 cell lysate in a dose-dependent manner"}]}, {"smiles": "CN[C@@H]1C[C@H]2O[C@@](C)([C@@H]1OC)n1c3ccccc3c3c4c(c5c6ccccc6n2c5c31)C(=O)NC4", "note": "[staurosporin]", "values": [{"measurement": "apoptotic cells", "setting": "U87 human glioma cells", "value": 31, "unit": "%"}, {"measurement": "necrotic cells", "setting": "U87 human glioma cells", "value": 27, "unit": "%"}, {"measurement": "apoptotic cells", "setting": "[2]", "value": 35, "unit": "%"}, {"measurement": "necrotic cells", "setting": "[2]", "value": 17, "unit": "%"}, {"measurement": "apoptotic cells", "setting": "[3]", "value": 5, "unit": "%"}, {"measurement": "necrotic cells", "setting": "[3]", "value": 11, "unit": "%"}]}]}
